Experimental data from paper PMC12070228, “Investigations of Enteric-Coated Tablet Propyl Gallate-Induced Nephrotoxicity in Beagles as well as Human and Dog Renal Proximal Tubule Epithelial Cells” (ACS Pharmacology & Translational Science, 2025).

Assays:
[1] = Exposure comparison of PG and phase-I and phase-II metabolites in dog and human plasma; conditions: oral EC MEDI7219 tablets; samples through 8 h; human PG 800 mg (N = 8), dog PG 200 mg/kg/day (N = 6)
Protocol: Dog blood was collected via jugular vein in potassium (K2) EDTA tubes and processed to plasma. Samples were centrifuged at approximately 3000 rpm for 5 min at approximately 4 °C within 30 min of collection. Plasma samples were acidified with 1% (v/v) formic acid (FA) to avoid degradation of PG and metabolites in plasma within 20 min of the start of centrifugation and then stored frozen (≤-60 °C). Acidified plasma was extracted using internal standard-spiked solution (100 mM ammonium bicarbonate: acetonitrile = 1:4). Samples were then centrifuged to collect supernatant, followed by drying to completion. The dried samples were reconstituted with 200 uL of 0.1% (v/v) formic acid in water. Samples were vortexed and centrifuged before injection. In order to assess potential impact of hemolysis on qualification of PG and its metabolites, hemolyzed plasma was prepared by spiking fully hemolyzed whole blood at an indicated percentage into plasma.
Separations were conducted on a reversed-phase column (Phenomenex, Kinetex F5, 2.6 μm 100 Å, 100 × 4.6 mm) at a flow rate of 0.7 mL/min at 40 °C. Mobile phase A was 0.1% formic acid in water and mobile phase B was 0.1% formic acid in methanol. The samples were analyzed on a SCIEX 6500+ QTRAP under negative ESI mode. The total run time was 5.5 min. Eight calibration standards and three quality control (LQC, MQC and HQC) samples were used for quantification.
The primary metabolites of PG were measured in dog and human plasma following oral administration of EC MEDI7219 tablets to examine a potential mechanism of the PG-mediated renal toxicity in dog and its possible translatability to humans. Plasma concentrations of PG, its phase-I metabolites GA and 4OMGA and phase-II glucuronide and glutathione conjugates were measured. The human and dog samples, collected through 8 h after administration, were analyzed and the results were compared (Figure , Figure S5). Based on allometric scaling method the highest daily dose administered in humans was approximately 8-fold less compared with the dose level tested in dogs.
Human (H) data is in black. Dog (D) data is in red (study 002). Concentration (mM) is in log10 scale. Data was normalized to PG dose (mg/kg/day). N = 8 for human (PG dosed at 800 mg with MEDI7219 tablets). N = 6 for dogs (PG dosed at 200 mg/kg/day). Below LLOQ values were set to 1/2 LLOQ for the calculation.

human RPTECs = assay: GSH-Glo glutathione assay; type: cell-based; conditions: ~48 h, high concentrations
Protocol: (§1) Frozen RPTECs vials were removed from liquid nitrogen storage and placed in a 37 °C water bath until the contents were completely thawed. The cells were gently resuspended and dispensed into a cell culture flask at a seeding density of ∼7500 cells/cm^2. The flask was placed in a 37 °C, 5% CO2 incubator. Cell cultures were given fresh medium the following morning and then every other day until the cell culture was approximately 90% confluent. When the cell culture was 90% confluent, medium was removed and the cells were rinsed with warmed PBS. Cells were harvested and split into new flasks based on a cell density of 7500 cells/cm^2. Cells were incubated at 37 °C for 3 days, with fresh medium added each day. Cells were harvested and diluted with growth medium to a density of 200,000 cells/mL. 100 μL of cell suspension per well (20,000 cells/well) was added to a clear-bottom 96-well microplate for luminescence assays. The plated cells were incubated in the 37 °C incubator for 3 days.
(§2) Each test compound (PG, GA, 4OMPG and 4OMGA) was initially reconstituted using DMSO at a concentration of 250 mg/mL. Serial dilutions of each compound were performed to reach concentrations of 4000 μM, 2000 μM, 1000 μM, 500 μM, 250 μM, 125 μM, 62.5 μM, 31.3 μM using warmed fresh supplemented medium with 0.4% (v/v) DMSO for all concentration levels. 100 μL of media containing the compound solution was added to the cells. Final concentrations of the compounds were 2000 μM, 1000 μM, 500 μM, 250 μM, 125 μM, 62.5 μM, 31.3 μM, 15.7 μM. AZ13599185 (tubulysin, 100 or 500 ng/mL) or cisplatin (30 μg/mL) and buthionine sulfoximine (BSO, 200 μM) were used as positive controls for CTG and GSH assays, respectively. 0.2% (v/v) DMSO in medium was used as the control for both assays, corrsponding to the final cocnetration of DMSO in the well. Three replicates for each compound at each concentration were prepared. Six replicates of positive or negative controls were prepared. Cells were incubated at 37 °C for approximately 48 h.
(§3) Cell media were removed and cells were washed twice with 200 μL of PBS buffer per well. CTG and GSH assay reagents were added to the wells and the assays were performed following the protocols of the Promega assay kits. Briefly, to perform the CTG assay, 100 μL of CTG solution was added into each well. The plate was gently shaken and incubated in the dark for 30 min and luminescence was measured using a PerkinElmer VICTOR X3 plate reader. To perform the GSH assay, luciferin-NT substrate and glutathione S-transferase were mixed into the GSH-GLo solution. 100 μL of the mixed solution was added into each well. The plate was gently shaken and incubated in the dark for at least 30 min. 100 μL of Luciferin Detection Reagent was added per well. The plate was gently shaken and incubated in the dark for at least 15 min. Luminescence was measured using a PerkinElmer VICTOR X3 plate reader.
(§4) For cell-based assays, data was normalized to the negative control. Cell viability and GSH level were expressed as Cell viability or GSH level=Luminescence(each well)/Luminescence(average of DMSO negative control)

dog RPTECs = assay: GSH-Glo glutathione assay; type: cell-based; conditions: ~48 h, high concentrations
Protocol: as §1, §2, §3, §4

[2] = no reference given; cited from earlier work
urine NGAL = conditions: dog, in vivo
Protocol: In the first investigative 4-week study (study 002), dogs received EC tablets consisting of different combinations of the clinical formulation excipients (Table ) with or without PG once daily for 27 days. For groups receiving tablets with PG, each EC tablet contained 100 mg PG; the number of tablets administered each day (13–20 placed in size 12 gelatin capsules) was adjusted based on the most recent body weight to yield a target PG dose level of 200 mg/kg/day. Scheduled necropsies of all surviving animals were conducted on day 28 of the dosing phase. Samples for PG toxicokinetics were collected on days 1, 14, 21, and 25 of the dosing-phase. On days 1, 14, and 21 samples were collected: predose and approximately 1, 2, 3, 4, 6, 8, 12, and 24 h postdose. Days 25: predose and approximately 1, 2, 3, 4, 6, 8, 10, and 24 h postdose. […] NGAL was measured using an ELISA method and normalized to urine creatinine. Blood samples for standard clinical chemistry parameters, including creatinine and urea nitrogen, were collected from fasted dogs twice prior to the predose phase and before daily dose administration on Days 7, 14, and 21 of the dosing phase, as well as on the day of scheduled necropsy; samples were measured on a clinical chemistry analyzer using a validated method.

Row | SMILES | Plasma exposure, humans compared with dogs [1] | GSH levels at high concentrations (human RPTECs) | also measured
1 | O=C(O)c1cc(O)c(O)c(O)c1 [GA, Gallic acid] | comparable between the two species | reduction of GSH levels | GSH levels at high concentrations (dog RPTECs): reduction of GSH levels; Log P [2]: 0.91
2 | COc1c(O)cc(C(=O)O)cc1O [Group 4OMGA, 4-O-methyl gallic acid] | comparable between the two species |  | 
3 | CCCOC(=O)c1cc(O)c(OC)c(O)c1 [Group 4OMPG, 4-O-methyl propyl gallate, reference compound] |  | increases of GSH | 
4 | O=C(O)c1cc(O)c(O)c(OC2OC(C(=O)O)C(O)C(O)C2O)c1 (centres unmarked) [GA-3-Gluc, gallic acid-3-glucoronide] | lower exposure |  | 
5 | C[C@H](CCC(=O)[O-])[C@H]1CC[C@H]2[C@@H]3[C@H](O)C[C@@H]4C[C@H](O)CC[C@]4(C)[C@H]3CC[C@]12C.[Na+] [NaCDC, sodium chenodeoxycholate] |  |  | Urine NGAL levels (urine NGAL): did not induce elevations in NGAL levels
